Patent publication US9681664B2, “Macrocyclic picolinamides as fungicides” (Dow Agrosciences LLC, priority 2012, dated 2017)
Where two headings read alike, the source gives them in different places.

Legend:
[1] = system: Mycosphaerella graminicola; Anamorph: Septoria tritici; experiment: Leaf blotch of wheat (SEPTTR) disease control on wheat seedlings; assay type: in vivo; settings: Zymoseptoria tritici; for pest or weed control at 121.5 g/ha: low volume application, 121.5 g/H
In short: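 Protective or curative format: Septoria tritici inoculation either preceded or followed fungicide application to first-leaf Yuma wheat. Severity scored 0–100%; control expressed versus untreated.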

[2] = system: Puccinia triticina; Synonym: Puccinia recondite f. sp. tritici; experiment: Wheat brown rust (PUCCRT) disease control on wheat seedlings; assay type: in vivo; settings: Puccinia triticina; for pest or weed control at 121.5 g/ha: low volume application, 121.5 g/H
In short: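 Yuma wheat grown to first fully emerged leaf was inoculated with Puccinia triticina spore suspension either before or after fungicide treatment, held overnight at 22° C. and 100% RH in darkness, then kept at 24° C. Fungicide applied by booth sprayer to run-off (acetone/water, 110 ppm Triton X-100) or as EC by track spray.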

[3] = 24 h, High volume application, 1 Day Protectant, read-out: SEPTTR 1DP disease control
[4] = 72 h, High volume application, 3 Day Curative, read-out: SEPTTR 3DC disease control
[5] = 24 h, High volume application, 1 Day Protectant, read-out: PUCCRT 1DP disease control
[6] = 72 h, High volume application, 3 Day Curative, read-out: PUCCRT 3DC disease control
[7] = 24 h, Wheat Leaf Blotch, 1 Day Protectant, high volume application, read-out: Disease Control SEPTTR 1 DP 100 ppm
[8] = 72 h, Wheat Leaf Blotch, 3 Day Curative, high volume application, read-out: Disease Control SEPTTR 3 DC 100 ppm
[9] = 24 h, Wheat Brown Rust, 1 Day Protectant, high volume application, read-out: Disease Control PUCCRT 1 DP 100 ppm
[10] = 72 h, Wheat Brown Rust, 3 Day Curative, high volume application, read-out: Disease Control PUCCRT 3 DC 100 ppm
[11] = 24 h, Wheat Leaf Blotch, 1 Day Protectant, read-out: Disease Control SEPTTR 1 DP 121.5 g/H
[12] = 72 h, Wheat Leaf Blotch, 3 Day Curative, read-out: Disease Control SEPTTR 3 DC 121.5 g/H
[13] = 24 h, Wheat Brown Rust, 1 Day Protectant, read-out: Disease Control PUCCRT 1 DP 121.5 g/H
[14] = 72 h, Wheat Brown Rust, 3 Day Curative, read-out: Disease Control PUCCRT 3 DC 121.5 g/H

SMILES | pest or weed control at 100 ppm [1, 3] [%] | pest or weed control at 100 ppm [1, 4] [%] | pest or weed control at 100 ppm [2, 5] [%] | pest or weed control at 100 ppm [2, 6] [%] | pest or weed control at 100 ppm [1, 7] [%] | pest or weed control at 100 ppm [1, 8] [%] | pest or weed control at 100 ppm [2, 9] [%] | pest or weed control at 100 ppm [2, 10] [%] | pest or weed control at 121.5 g/ha [1, 11] [%] | pest or weed control at 121.5 g/ha [1, 12] [%] | pest or weed control at 121.5 g/ha [2, 13] [%] | pest or weed control at 121.5 g/ha [2, 14] [%]
COc1ccnc(C(=O)N[C@H]2CCC[C@H](OCCCC(F)(F)F)[C@@H](OC3CCCC3)[C@H](C)OC2=O)c1O [F168] | 80 to 100 | 80 to 100 | 80 to 100 | 80 to 100 | – | – | – | – | – | – | – | –
COc1ccnc(C(=O)N[C@H]2CCC[C@H](OCC(C)C)[C@@H](OC3CCCCC3)[C@H](C)OC2=O)c1O [F210] | 80 to 100 | 80 to 100 | 80 to 100 | 80 to 100 | – | – | – | – | – | – | – | –
COc1ccnc(C(=O)N[C@H]2CCC[C@H](OC3CCCCC3)[C@@H](OCC(C)C)[C@H](C)OC2=O)c1O [F211] | 80 to 100 | 80 to 100 | 80 to 100 | 80 to 100 | – | – | – | – | – | – | – | –
COc1ccnc(C(=O)N[C@H]2CCC[C@H](OCC(C)C)[C@@H](OCCCc3ccccc3)[C@H](C)OC2=O)c1OC(C)=O [F214] | 80 to 100 | 80 to 100 | 80 to 100 | 80 to 100 | – | – | – | – | – | – | – | –
COCCC(=O)Oc1c(OC)ccnc1C(=O)N[C@H]1CCC[C@H](OCC(C)C)[C@@H](OCCCc2ccccc2)[C@H](C)OC1=O [F215] | 80 to 100 | 80 to 100 | 80 to 100 | 80 to 100 | – | – | – | – | – | – | – | –
COc1ccnc(C(=O)N[C@H]2CCC[C@H](OCC(C)C)[C@@H](OCCCC(F)(F)F)[C@H](C)OC2=O)c1OC(C)=O [F216] | 80 to 100 | 80 to 100 | 80 to 100 | 80 to 100 | – | – | – | – | – | – | – | –
COc1ccnc(C(=O)N[C@H]2CCC[C@H](OCC(C)C)[C@@H](OC(=O)C3CCCC3)[C@H](C)OC2=O)c1OCOC(=O)C(C)C [F218] | 80 to 100 | 0 to 80 | 80 to 100 | 80 to 100 | – | – | – | – | – | – | – | –
COc1ccnc(C(=O)N[C@H]2CCC[C@H](OCCCc3ccccc3)[C@@H](OCC(C)C)[C@H](C)OC2=O)c1O [F219] | 80 to 100 | 0 to 80 | 80 to 100 | 80 to 100 | – | – | – | – | – | – | – | –
C=C(C)CO[C@H]1CCC[C@H](NC(=O)c2nccc(OC)c2O)C(=O)O[C@@H](C)[C@@H]1OCC(C)C [F220] | 80 to 100 | 80 to 100 | 80 to 100 | 80 to 100 | – | – | – | – | – | – | – | –
COc1ccnc(C(=O)N[C@H]2CCC[C@H](OC(=O)C3CCCC3)[C@@H](OCC(C)C)[C@H](C)OC2=O)c1O [F221] | 80 to 100 | 0 to 80 | 80 to 100 | 0 to 80 | – | – | – | – | – | – | – | –
COc1ccnc(C(=O)N[C@H]2CCC[C@H](OCCCc3ccccc3)[C@@H](OCC(C)C)[C@H](C)OC2=O)c1OCOC(C)=O [F222] | 80 to 100 | 80 to 100 | 80 to 100 | 80 to 100 | – | – | – | – | – | – | – | –
COc1ccnc(C(=O)N[C@H]2CCC[C@H](OC(=O)C3CCCC3)[C@@H](OCC(C)C)[C@H](C)OC2=O)c1OCOC(C)=O [F223] | 80 to 100 | 80 to 100 | 80 to 100 | 80 to 100 | – | – | – | – | – | – | – | –
COc1ccnc(C(=O)N[C@H]2CCC[C@H](OCCCc3ccccc3)[C@@H](OC3CCCC3)[C@H](C)OC2=O)c1O [F224] | 0 to 80 | 0 to 80 | 80 to 100 | 0 to 80 | – | – | – | – | – | – | – | –
COc1ccnc(C(=O)N[C@H]2CCC[C@H](OCCCc3ccccc3)[C@@H](OC3CCCC3)[C@H](C)OC2=O)c1OCOC(C)=O [F225] | 80 to 100 | 80 to 100 | 80 to 100 | 80 to 100 | – | – | – | – | – | – | – | –
COc1ccnc(C(=O)N[C@H]2CCC[C@H](Oc3ccccc3)[C@@H](OC(=O)C3CCCC3)[C@H](C)OC2=O)c1O [F232] | – | – | – | – | 80 to 100 | 0 to 80 | 80 to 100 | 80 to 100 | – | – | – | –
COc1ccnc(C(=O)N[C@H]2CCC[C@H](Oc3ccccc3)[C@@H](OC(=O)C3CCCC3)[C@H](C)OC2=O)c1OCOC(C)=O [F233] | – | – | – | – | 80 to 100 | 80 to 100 | 80 to 100 | 80 to 100 | 80 to 100 | 80 to 100 | 80 to 100 | 0 to 80
COc1ccnc(C(=O)N[C@H]2CCC[C@H](Oc3ccccc3)[C@@H](OC(=O)C3CCCC3)[C@H](C)OC2=O)c1OCOC(=O)C(C)C [F234] | – | – | – | – | 80 to 100 | 80 to 100 | 80 to 100 | 80 to 100 | 80 to 100 | < 0 | 80 to 100 | < 0
COc1ccnc(C(=O)N[C@H]2CCC[C@H](Oc3ccccc3)[C@@H](OC(=O)C3CCCC3)[C@H](C)OC2=O)c1OC(C)=O [F235] | – | – | – | – | 80 to 100 | 80 to 100 | 80 to 100 | 80 to 100 | 80 to 100 | 0 to 80 | 80 to 100 | 0 to 80
COc1ccnc(C(=O)N[C@H]2CCC[C@H](Oc3ccccc3)[C@@H](OC(=O)C3CCCC3)[C@H](C)OC2=O)c1OC(=O)C1CC1 [F236] | – | – | – | – | 0 to 80 | 0 to 80 | 80 to 100 | 0 to 80 | 80 to 100 | 0 to 80 | 0 to 80 | < 0
COc1ccnc(C(=O)N[C@H]2CCC[C@H](Oc3ccccc3)[C@@H](OC(=O)C3CC3)[C@H](C)OC2=O)c1O [F239] | – | – | – | – | < 0 | 0 to 80 | 0 to 80 | < 0 | – | – | – | –
COc1ccnc(C(=O)N[C@H]2CCC[C@H](Oc3ccccc3)[C@@H](OC(=O)C3CC3)[C@H](C)OC2=O)c1OCOC(C)=O [F240] | – | – | – | – | 80 to 100 | 80 to 100 | 80 to 100 | 80 to 100 | 80 to 100 | 80 to 100 | 80 to 100 | 80 to 100
C=C(C)CO[C@H]1CCC[C@H](NC(=O)c2nccc(OC)c2O)C(=O)O[C@@H](C)[C@@H]1OC [F245] | – | – | – | – | 0 to 80 | 80 to 100 | 80 to 100 | 0 to 80 | – | – | – | –
COc1ccnc(C(=O)N[C@H]2CCC[C@H](OCC(C)C)[C@@H](OC)[C@H](C)OC2=O)c1O [F247] | – | – | – | – | 80 to 100 | 0 to 80 | 80 to 100 | 80 to 100 | – | – | – | –
COc1ccnc(C(=O)N[C@H]2CCC[C@H](Oc3ccccc3)[C@@H](OC)[C@H](C)OC2=O)c1O [F249] | – | – | – | – | 0 to 80 | 0 to 80 | 80 to 100 | 80 to 100 | – | – | – | –
C=C(C)CO[C@H]1CCC[C@H](NC(=O)c2nccc(OC)c2OC(C)=O)C(=O)O[C@@H](C)[C@@H]1OC [F256] | – | – | – | – | – | – | – | – | < 0 | 0 to 80 | 0 to 80 | 80 to 100
COc1ccnc(C(=O)N[C@H]2CCC[C@H](OCC(C)C)[C@@H](OC)[C@H](C)OC2=O)c1OC(C)=O [F257] | – | – | – | – | – | – | – | – | 80 to 100 | 80 to 100 | 80 to 100 | 80 to 100
COc1ccnc(C(=O)N[C@H]2CCC[C@H](Oc3ccccc3)[C@@H](OC)[C@H](C)OC2=O)c1OC(C)=O [F258] | – | – | – | – | – | – | – | – | 0 to 80 | 0 to 80 | 80 to 100 | 80 to 100
COCCC(=O)Oc1c(OC)ccnc1C(=O)N[C@H]1CCC[C@H](OCC(C)C)[C@@H](OC)[C@H](C)OC1=O [F259] | – | – | – | – | – | – | – | – | < 0 | 80 to 100 | 80 to 100 | 80 to 100
